The values that follow come from ChEMBL document CHEMBL1131555 (Bioorg Med Chem Lett, 1998).

The target in one test is T1, Androgen receptor (Homo sapiens, UniProt P10275).
T1 sequence (P10275 whole entry): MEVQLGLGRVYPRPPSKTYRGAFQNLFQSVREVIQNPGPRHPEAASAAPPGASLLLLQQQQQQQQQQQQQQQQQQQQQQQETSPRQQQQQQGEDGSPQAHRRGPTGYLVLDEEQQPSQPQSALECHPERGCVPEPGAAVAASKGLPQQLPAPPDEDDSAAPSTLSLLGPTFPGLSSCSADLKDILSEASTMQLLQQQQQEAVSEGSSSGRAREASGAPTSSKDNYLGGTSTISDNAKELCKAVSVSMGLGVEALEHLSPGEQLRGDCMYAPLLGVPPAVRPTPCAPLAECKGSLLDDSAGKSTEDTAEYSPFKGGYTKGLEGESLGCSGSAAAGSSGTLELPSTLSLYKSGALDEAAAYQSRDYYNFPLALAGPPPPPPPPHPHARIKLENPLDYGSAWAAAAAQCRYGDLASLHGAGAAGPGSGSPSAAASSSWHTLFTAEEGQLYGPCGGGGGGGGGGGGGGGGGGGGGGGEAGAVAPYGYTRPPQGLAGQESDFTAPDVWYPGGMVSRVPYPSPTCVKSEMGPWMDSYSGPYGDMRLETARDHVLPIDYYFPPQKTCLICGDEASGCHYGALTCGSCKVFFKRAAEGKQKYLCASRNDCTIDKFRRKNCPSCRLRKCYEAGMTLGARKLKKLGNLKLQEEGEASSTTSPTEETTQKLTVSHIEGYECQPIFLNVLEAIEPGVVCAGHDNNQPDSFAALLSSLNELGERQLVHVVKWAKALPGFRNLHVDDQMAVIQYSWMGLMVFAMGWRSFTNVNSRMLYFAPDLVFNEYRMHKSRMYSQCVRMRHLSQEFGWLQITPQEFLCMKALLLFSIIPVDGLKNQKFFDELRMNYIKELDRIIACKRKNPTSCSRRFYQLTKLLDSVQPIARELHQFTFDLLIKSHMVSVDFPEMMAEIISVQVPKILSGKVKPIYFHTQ

A further test addresses T2, Glucocorticoid receptor (Homo sapiens, UniProt P04150).
T2 sequence (P04150 whole entry): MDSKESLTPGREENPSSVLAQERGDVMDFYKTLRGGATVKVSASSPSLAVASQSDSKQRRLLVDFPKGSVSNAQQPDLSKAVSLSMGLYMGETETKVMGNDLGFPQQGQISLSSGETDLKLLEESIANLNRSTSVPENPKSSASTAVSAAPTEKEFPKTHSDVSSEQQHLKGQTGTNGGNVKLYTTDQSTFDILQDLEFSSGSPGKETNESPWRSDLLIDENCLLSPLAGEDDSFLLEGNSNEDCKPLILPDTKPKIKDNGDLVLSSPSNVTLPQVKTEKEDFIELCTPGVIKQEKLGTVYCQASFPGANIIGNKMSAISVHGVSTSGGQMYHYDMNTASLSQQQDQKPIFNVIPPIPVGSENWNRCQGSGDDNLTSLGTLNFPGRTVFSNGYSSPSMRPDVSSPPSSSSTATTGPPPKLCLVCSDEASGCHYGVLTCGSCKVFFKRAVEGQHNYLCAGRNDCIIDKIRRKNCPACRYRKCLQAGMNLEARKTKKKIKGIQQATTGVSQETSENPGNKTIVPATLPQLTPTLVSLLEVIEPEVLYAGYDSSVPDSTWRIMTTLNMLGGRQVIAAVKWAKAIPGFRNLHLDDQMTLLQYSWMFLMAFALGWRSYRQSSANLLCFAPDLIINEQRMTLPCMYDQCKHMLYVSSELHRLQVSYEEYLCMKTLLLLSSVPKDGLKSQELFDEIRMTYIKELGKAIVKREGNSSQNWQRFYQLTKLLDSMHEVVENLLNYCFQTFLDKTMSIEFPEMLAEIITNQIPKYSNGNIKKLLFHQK

Description for Androgen receptor: Displacement of DHT from human androgen receptor
Description for Glucocorticoid receptor: Displacement of Dexamethasone from human glucocorticoid receptor

`CCCCC1Oc2ccc(C)cc2-c2ccc3c(c21)C(C)=CC(C)(C)N3` (stereo not given): the Ki (in general, a measure of affinity in units of concentration, obtained from inhibition or displacement) on Androgen receptor is 903 nM; on Glucocorticoid receptor, 51 nM.
The like results for `CCCCC1Oc2ccc(OC)cc2-c2ccc3c(c21)C(C)=CC(C)(C)N3` (stereo not given) were, in that order, 785 nM and 130 nM.
`CCCCC1Oc2ccc(Cl)cc2-c2ccc3c(c21)C(C)=CC(C)(C)N3` (stereo not given): the figures for the Ki at Androgen receptor and at Glucocorticoid receptor were 886 nM and 394 nM, respectively.
For `CC1=CC(C)(C)Nc2ccc3c(c21)C(C)Oc1ccc(Cl)cc1-3` (stereo not given), in that order: 621 nM and 367 nM.
With `CCCCC1Oc2ccc(F)cc2-c2ccc3c(c21)C(C)=CC(C)(C)N3` (stereo not given), the inhibition constant (Ki) on Androgen receptor came to 1330 nM; on Glucocorticoid receptor it was 533 nM.
The like results for `CC1=CC(C)(C)Nc2ccc3c(c21)C(CCC(C)C)Oc1ccccc1-3` (stereo not given) were, in that order, 1480 nM and 158 nM.
For `CCCCC1Oc2ccccc2-c2ccc3c(c21)C(C)=CC(C)(C)N3` (stereo not given), in that order: 2050 nM and 813 nM.
The like results for `C=CCC1Oc2ccccc2-c2ccc3c(c21)C(C)=CC(C)(C)N3` (stereo not given) were, in that order, greater than 1000 nM and 889 nM.
Consider `CCCOC1Oc2ccc(Cl)cc2-c2ccc3c(c21)C(C)=CC(C)(C)N3` (stereo not given), for which the Ki on Androgen receptor was found to be 697 nM; at Glucocorticoid receptor, 260 nM.
For `CC1=CC(C)(C)Nc2ccc3c(c21)C(C)Oc1ccc(F)cc1-3` (stereo not given), in that order: 456 nM and 749 nM.
